Legend:
Cdk5 = tested on: Cdk5; parameters: method as in Jorda et al. [23]; conditions: ref Jorda et al. [23]; cited from earlier work
Cdk2 = tested on: Cdk2; parameters: method as in Jorda et al. [23]; conditions: ref Jorda et al. [23]; cited from earlier work
FAK = molecular target: T1, FAK (Homo sapiens, UniProt Q05397); assay: In vitro kinase profile (ProQinase); format: biochemical
T1 construct: purchased ProQinase (Freiburg, Germany)
Method: (§1) Therefore, it was of interest to see which kinases, especially which Cdks, are inhibited by those compounds. The kinase profiling was performed by ProQinase (Freiburg, Germany) for LGR 1406 and 1407. For LGR 1404 kinase profiling has recently been published previously. LGR 1406 and 1407 were tested for their IC50 in a panel of 24 kinases, including the Cdk1, Cdk2, Cdk4, Cdk5, Cdk6, Cdk7 and Cdk9. The other kinases tested were PTK6, EGFR, FAK, FGFR1 and FGFR2, NLK, PAK4, VEGFR1 and VEGFR2, MEK1, ROCK1, RAF1, ALK, RSK3, AURKA, and AMPKα1.

Cdk4/CycD1 = molecular target: T2, Cdk4/CycD1 (Homo sapiens, UniProt P11802); assay: In vitro kinase profile (ProQinase); format: biochemical
T2 construct: purchased ProQinase (Freiburg, Germany)
Method: as §1

Cdk9/CycT = molecular target: T3, Cdk9/CycT (Homo sapiens, UniProt P50750); assay: In vitro kinase profile (ProQinase); format: biochemical
T3 construct: purchased ProQinase (Freiburg, Germany)
Method: as §1

Aurora kinase A = molecular target: T4, Aurora kinase A (Homo sapiens, UniProt O14965); assay: In vitro kinase profile (ProQinase); format: biochemical
T4 construct: purchased ProQinase (Freiburg, Germany)
T4 sequence (O14965 1-403): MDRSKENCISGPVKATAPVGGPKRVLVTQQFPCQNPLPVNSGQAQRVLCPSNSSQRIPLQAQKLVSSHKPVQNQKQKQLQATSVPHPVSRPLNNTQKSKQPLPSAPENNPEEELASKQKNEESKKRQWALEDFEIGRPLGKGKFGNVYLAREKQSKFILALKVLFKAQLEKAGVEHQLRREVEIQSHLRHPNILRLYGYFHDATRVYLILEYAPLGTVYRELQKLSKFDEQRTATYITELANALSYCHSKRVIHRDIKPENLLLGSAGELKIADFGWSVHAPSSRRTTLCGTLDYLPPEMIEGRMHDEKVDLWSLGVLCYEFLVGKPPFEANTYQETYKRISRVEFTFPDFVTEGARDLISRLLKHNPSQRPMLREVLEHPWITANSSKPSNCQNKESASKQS
Method: as §1

RSK3 = molecular target: T5, RSK3 (Homo sapiens, UniProt Q15349); assay: In vitro kinase profile (ProQinase); format: biochemical
T5 construct: purchased ProQinase (Freiburg, Germany)
Method: as §1

PAK4 = molecular target: T6, PAK4 (Homo sapiens, UniProt O96013); assay: In vitro kinase profile (ProQinase); format: biochemical
T6 construct: purchased ProQinase (Freiburg, Germany)
Method: as §1

HMEC-1 cells = assay: Microscopy / propidium iodide staining for cell death at proliferation-assay cell density; format: cell-based; conditions: 30 µM, 72 h
Method: A: HMEC-1 cells were seeded in the same density as for the proliferation assay and treated with the respective compound at 30 µM for 72 h to test whether reduced cell numbers in the proliferation assay are due to inhibition of proliferation or to excessive cell death. No increase of detached, obviously dead or propidium iodide positive cells was detected. B and C: Confluent layers of HUVECs were scratched and the cells were allowed to migrate for 16 h in the presence or absence of 10 µM of the compounds. B: The columns indicate the area re-covered by migrating cells (n = 3, mean ± SEM, * p<0.05, One Way ANOVA, Dunnett). C: Scratches at endpoint, representative images taken out of three experiments.
HMEC-1 were seeded into 96-well-plates (1,500 cells/well). After 24 h, the cells were stimulated with the indicated compounds. At the same time point, cells in a reference plate were stained with crystal violet, serving as initial cell number. After 72 hours of stimulation, cells were fixed and stained with crystal-violet solution for 10 minutes, washed with water, and air dried. Crystal violet was eluted with dissolving buffer and absorbance was measured at 550 nm (Tecan Sunrise Absorbance reader, TECAN, Crailsheim, Germany). […] Phase contrast and fluorescence images were obtained with an inverted Nikon microscope (Ti, Nikon, Düsseldorf, Germany) equipped with a 10x objective.

T2 sequence (P11802 whole entry): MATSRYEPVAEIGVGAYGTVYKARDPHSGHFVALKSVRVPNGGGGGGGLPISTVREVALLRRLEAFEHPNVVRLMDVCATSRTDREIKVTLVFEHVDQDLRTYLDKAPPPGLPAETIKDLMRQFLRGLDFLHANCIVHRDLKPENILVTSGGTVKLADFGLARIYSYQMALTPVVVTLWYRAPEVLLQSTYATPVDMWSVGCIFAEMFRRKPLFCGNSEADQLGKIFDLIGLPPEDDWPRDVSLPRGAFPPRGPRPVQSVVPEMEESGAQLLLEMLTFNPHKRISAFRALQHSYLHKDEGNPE
T2 sequence (P24385 whole entry partner): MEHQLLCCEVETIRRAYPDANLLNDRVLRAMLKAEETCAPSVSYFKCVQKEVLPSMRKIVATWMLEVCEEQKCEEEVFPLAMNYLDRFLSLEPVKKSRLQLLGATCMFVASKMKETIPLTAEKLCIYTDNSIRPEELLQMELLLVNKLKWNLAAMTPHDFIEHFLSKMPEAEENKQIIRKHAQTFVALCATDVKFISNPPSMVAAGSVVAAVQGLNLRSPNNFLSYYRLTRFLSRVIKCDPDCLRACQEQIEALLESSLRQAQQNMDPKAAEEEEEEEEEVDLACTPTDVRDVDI
T3 sequence (P50750 whole entry): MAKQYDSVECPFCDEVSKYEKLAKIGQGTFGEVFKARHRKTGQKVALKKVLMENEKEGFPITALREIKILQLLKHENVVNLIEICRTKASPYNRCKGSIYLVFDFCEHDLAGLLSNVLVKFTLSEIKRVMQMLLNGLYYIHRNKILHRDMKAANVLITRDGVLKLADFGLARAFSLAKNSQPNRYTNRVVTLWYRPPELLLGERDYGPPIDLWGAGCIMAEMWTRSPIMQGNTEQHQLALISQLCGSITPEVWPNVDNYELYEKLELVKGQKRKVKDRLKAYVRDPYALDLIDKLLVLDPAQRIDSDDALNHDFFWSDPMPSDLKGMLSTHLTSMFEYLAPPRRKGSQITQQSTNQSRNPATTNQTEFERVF
T3 sequence (O60563 whole entry partner): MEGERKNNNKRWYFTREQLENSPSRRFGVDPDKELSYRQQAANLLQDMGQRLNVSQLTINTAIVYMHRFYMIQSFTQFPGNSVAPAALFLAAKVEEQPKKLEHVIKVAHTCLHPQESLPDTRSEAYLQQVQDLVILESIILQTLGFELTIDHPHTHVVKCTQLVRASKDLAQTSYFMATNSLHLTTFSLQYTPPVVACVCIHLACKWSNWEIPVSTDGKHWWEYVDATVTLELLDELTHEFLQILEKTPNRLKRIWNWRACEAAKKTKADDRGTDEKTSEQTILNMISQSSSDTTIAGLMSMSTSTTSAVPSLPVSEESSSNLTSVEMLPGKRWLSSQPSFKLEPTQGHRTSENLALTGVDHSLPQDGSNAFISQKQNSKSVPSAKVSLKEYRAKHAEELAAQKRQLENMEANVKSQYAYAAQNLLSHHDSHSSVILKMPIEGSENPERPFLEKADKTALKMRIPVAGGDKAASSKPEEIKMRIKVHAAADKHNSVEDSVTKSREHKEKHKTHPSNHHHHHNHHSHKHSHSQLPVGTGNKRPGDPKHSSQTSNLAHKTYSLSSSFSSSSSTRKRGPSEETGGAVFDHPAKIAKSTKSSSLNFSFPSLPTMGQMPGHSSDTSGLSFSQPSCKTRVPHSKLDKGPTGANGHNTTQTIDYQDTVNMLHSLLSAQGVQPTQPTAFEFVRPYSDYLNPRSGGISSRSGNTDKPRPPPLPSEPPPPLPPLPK
T6 sequence (O96013 whole entry): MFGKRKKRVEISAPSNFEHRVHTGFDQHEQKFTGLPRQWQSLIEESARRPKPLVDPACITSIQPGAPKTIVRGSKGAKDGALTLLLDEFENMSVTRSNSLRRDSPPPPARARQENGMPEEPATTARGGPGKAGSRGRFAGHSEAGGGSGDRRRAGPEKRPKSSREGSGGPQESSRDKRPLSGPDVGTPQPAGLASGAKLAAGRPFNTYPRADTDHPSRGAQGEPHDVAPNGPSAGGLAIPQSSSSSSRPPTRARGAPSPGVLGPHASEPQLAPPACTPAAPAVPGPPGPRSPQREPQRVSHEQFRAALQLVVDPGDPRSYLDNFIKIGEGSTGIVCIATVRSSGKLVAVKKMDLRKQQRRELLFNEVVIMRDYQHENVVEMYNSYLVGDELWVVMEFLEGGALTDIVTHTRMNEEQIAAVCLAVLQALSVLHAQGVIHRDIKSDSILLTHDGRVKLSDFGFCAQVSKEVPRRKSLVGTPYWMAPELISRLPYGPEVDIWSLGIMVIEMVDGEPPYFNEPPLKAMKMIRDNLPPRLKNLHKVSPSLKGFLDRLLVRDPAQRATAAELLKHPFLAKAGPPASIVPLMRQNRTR
T1 sequence (Q05397 whole entry): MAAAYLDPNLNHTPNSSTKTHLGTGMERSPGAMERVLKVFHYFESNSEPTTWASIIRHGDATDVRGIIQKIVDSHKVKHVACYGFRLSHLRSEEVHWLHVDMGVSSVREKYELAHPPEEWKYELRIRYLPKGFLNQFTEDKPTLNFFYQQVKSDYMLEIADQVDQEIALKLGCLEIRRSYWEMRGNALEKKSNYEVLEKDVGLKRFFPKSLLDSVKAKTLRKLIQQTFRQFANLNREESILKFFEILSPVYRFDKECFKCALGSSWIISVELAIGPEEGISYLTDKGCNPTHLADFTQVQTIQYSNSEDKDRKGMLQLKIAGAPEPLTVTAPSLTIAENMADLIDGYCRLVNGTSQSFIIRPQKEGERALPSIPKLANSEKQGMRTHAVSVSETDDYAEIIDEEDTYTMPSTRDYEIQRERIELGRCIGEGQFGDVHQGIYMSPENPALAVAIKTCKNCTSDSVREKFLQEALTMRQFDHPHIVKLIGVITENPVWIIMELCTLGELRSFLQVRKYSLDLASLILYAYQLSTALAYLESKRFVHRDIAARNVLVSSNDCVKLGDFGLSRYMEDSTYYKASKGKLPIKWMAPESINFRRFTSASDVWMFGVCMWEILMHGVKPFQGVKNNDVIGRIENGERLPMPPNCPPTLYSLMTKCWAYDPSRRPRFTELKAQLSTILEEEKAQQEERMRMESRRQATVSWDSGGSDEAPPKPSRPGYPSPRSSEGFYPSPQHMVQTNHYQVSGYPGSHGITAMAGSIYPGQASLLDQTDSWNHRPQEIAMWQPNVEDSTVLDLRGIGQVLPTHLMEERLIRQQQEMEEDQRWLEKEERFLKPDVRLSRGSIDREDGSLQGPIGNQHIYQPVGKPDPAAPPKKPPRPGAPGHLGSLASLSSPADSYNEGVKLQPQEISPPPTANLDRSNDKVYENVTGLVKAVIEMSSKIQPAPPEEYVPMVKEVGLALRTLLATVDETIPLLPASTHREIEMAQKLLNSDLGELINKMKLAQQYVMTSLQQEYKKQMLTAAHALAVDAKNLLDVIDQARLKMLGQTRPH
T5 sequence (Q15349 whole entry): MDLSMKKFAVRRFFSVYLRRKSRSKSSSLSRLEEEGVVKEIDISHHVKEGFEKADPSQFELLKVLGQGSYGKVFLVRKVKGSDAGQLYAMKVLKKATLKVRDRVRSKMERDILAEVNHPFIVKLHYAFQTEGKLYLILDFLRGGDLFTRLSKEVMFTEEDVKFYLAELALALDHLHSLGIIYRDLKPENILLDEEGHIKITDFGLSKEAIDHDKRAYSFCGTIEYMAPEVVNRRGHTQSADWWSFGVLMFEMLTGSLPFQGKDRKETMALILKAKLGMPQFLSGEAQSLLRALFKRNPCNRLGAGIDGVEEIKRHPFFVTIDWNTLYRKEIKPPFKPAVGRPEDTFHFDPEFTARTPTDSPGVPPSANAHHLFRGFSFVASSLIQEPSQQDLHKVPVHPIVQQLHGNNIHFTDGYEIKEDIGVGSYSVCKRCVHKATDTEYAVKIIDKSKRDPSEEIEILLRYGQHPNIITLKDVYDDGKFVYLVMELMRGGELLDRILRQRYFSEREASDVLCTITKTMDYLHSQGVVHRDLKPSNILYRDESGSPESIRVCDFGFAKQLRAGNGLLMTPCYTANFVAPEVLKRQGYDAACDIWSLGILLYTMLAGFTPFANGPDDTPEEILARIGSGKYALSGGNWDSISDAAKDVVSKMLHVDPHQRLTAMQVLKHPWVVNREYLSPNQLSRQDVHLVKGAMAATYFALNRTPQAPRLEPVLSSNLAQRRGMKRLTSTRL

Compound	IC50 (Cdk5) [nM]	IC50 (Cdk2) [nM]	IC50 (FAK) [µM]	IC50 (Cdk4/CycD1) [µM]	IC50 (Cdk9/CycT) [nM]	IC50 (Aurora kinase A) [µM]	IC50 (RSK3) [µM]	IC50 (PAK4) [µM]	morphologically altered, dead or detached cells, loss of membrane integrity (propidium iodide) (HMEC-1 cells)
CC[C@H](CO)Nc1nc(NCc2ccccc2)c2n[nH]c(C(C)C)c2n1 [LGR 1404, 7-Benzylamino-5(R)-[(1-hydroxymethyl)propylamino]-3-isopropyl-1(2)H-pyrazolo[4,3-d]pyrimidine]	940	220							
CC(C)c1n[nH]c2c(NCc3ccccc3)nc(NC3CCCCC3N)nc12 (stereo not drawn) [LGR 1406, 5-[(2-E/Z-aminocyclohexyl)amino]-7-benzylamino-3-isopropyl-1(2)H-pyrazolo[4,3-d]pyrimidine]			< 10	15	1000	< 10	< 10	< 10	no increase of morphologically altered, dead or detached cells, and no loss of membrane integrity
CC(C)c1n[nH]c2c(NCc3ccccc3)nc(NC3CCC(N)CC3)nc12 (stereo not drawn) [LGR 1407, 5-[(4-E-aminocyclohexyl)amino]-7-benzylamino-3-isopropyl-1(2)H-pyrazolo[4,3-d]pyrimidine]				66	1900	≤ 10			

From PMC3545992, “Trisubstituted Pyrazolopyrimidines as Novel Angiogenesis Inhibitors” (PLoS ONE, 2013)
